Test system: acetylcholine-induced bronchospasm
Assay: Inhibition of acetylcholine-induced bronchospasm in the anaesthetised dog after administration by inhalation
Details: aerosol, FIG. 1; for peak inhibition of acetylcholine-induced bronchospasm: 5 μg L-(-)-enantiomer (curve B) or 10 μg racemate (curve A); for time at which peak inhibition of bronchospasm is reached / time until inhibition of bronchospasm has fallen back to initial/starting level: 5 μg L-(-)-enantiomer or 10 μg racemate
Method: 5 μg of the pure L-(-)-enantiomer and, accordingly, 10 μg of the racemate were administered.

SMILES	peak inhibition of acetylcholine-induced bronchospasm	time at which peak inhibition of bronchospasm is reached	time until inhibition of bronchospasm has fallen back to initial/starting level [min]
CC(C)[N+]1(C)C2CCC1CC(OC(=O)C(CO)c1ccccc1)C2 (single isomer, unassigned) [BIIH 150 BR, (endo, syn)-(-)-3-(3-hydroxy-l-oxo-2-phenylpropoxy)-8-methyl-8-(1-methylethyl)-8-azoniabicyclo [3,2,1]octane]	60%	about 10 minutes	180
CC(C)[N+]1(C)C2CCC1CC(OC(=O)C(CO)c1ccccc1)C2 (stereo not drawn) [Ipratropium bromide]	about 55%	about 10 minutes	60

Reference: US6299861A, “Ipratropium bromide enantiomer with prolonged duration of effect” (Boehringer Ingelheim KG, priority 1995, dated 2001)
